What was measured:
[1] = method code SF-AS, from PMID: 6540096; conditions: pH 7.5
[2] = method code SF-HPLC, from DOI: 10.1021/js950346l, PMID: 9109056
[3] = method code SF-AS, from PMID: 3774812; conditions: pH 4.0
[4] = from Afshan, A.; Jehangir, M.; Amin, W.; Mujahid, A. (2000). Study of various esters of ethylcysteine acid dimer as brain perfusion imaging agents and formulation into single vial kit for labelling with …; conditions: pH 7.5
[5] = method code SF, from DOI: 10.1023/a:1012119527214, PMID: 9453056; conditions: pH 12.5
[6] = method code SF-AS, from DOI: 10.1248/cpb.28.3673
[7] = method code SF-RC, from DOI: 10.1021/jm000079i, PMID: 10956218; conditions: pH 7.4
[8] = method code SF-HPLC, from DOI: 10.1006/pest.1998.2384
[9] = method code SF-HPLC, from PMID: 1854437; conditions: pH 7.4
[10] = method code SF-HPLC, from DOI: 10.1002/ps.2780440103; conditions: pH 2.0
[11] = method code SF-AS, from DOI: 10.1002/chin.199416148, PMID: 8117185
[12] = not given; remark: listed apart in the source
[13] = from Comini, L.; Núñez Montoya, S.; Argüello, G.; Cabrera, J. (2006). Partition coefficient (log P) determination of anthraquinone derivatives isolated from Heterophyllaea pustulata Hook, f. (Rubiaceae). …; conditions: pH 7.4
[14] = not given; remark: listed apart in the source
[15] = not given; remark: listed apart in the source
[16] = method code SF-AS, from M. Kuchar, J. Tomkova, V. Rejholec, & O. Roubinek. (1992). Some problems of the chromatographic evaluation of lipophicity. In Kuchar, M. (Ed.) QSAR in Design of Bioactive Compounds (pp. 65-81). Prous …; conditions: pH 3.4
[17] = not given; remark: listed apart in the source
[18] = method code SF-HPLC, from DOI: 10.1016/j.apradiso.2007.04.014, PMID: 17574425; conditions: pH 7.4
[19] = method code SF, from DOI: 10.1080/10826070801924857
[20] = method code SF-AS, from DOI: 10.1248/cpb.42.1084, PMID: 8069960
[21] = not given; remark: listed apart in the source
[22] = method code SF, from DOI: 10.1016/s0021-9673(03)00534-x, PMID: 12800922; conditions: pH 11.0
[23] = method code SF-HPLC, from DOI: 10.1021/jm030477w, PMID: 15084119; conditions: pH 7.4
[24] = from Nishimura, K.; Okajima, N.; Fujita, T.; Nakajima, M. (1982). Quantitative structure-activity studies of substituted benzylchrysanthemates. IV. Physicochemical properties and rate of progress of the …
[25] = method code SF-HPLC, from DOI: 10.1002/ps.2780280108
[26] = method code SF-HPLC, from DOI: 10.1021/jf0483669, PMID: 15913295; conditions: pH 7.4
[27] = method code SF-AS, from DOI: 10.1128/jb.153.1.232-240.1983, PMID: 6294048
[28] = not given; remark: listed apart in the source
[29] = method code G, from Wang, L.; Li, H.; Wang, X.; Zhang, Z. (1993). Determination of aqueous solubilities and partition coefficients of substitutive ethylketone congeners by generator column. Huanjing Huaxue, 12(2)151-154.
[30] = method code SF, from DOI: 10.1016/s0223-5234(99)80097-x; conditions: pH 7.5
[31] = method code SF-AS, from DOI: 10.1021/jm00296a014, PMID: 5418493
[32] = method code SF-HPLC, from DOI: 10.1016/j.ejpb.2012.12.004, PMID: 23262162

Work on O=C1CN=C(c2ccccc2Cl)c2cc([N+](=O)[O-])ccc2N1 yielded a logD [1] of 2.5.

For O=C(O)COC(=O)Cc1ccccc1Nc1c(Cl)cccc1Cl, the logP [2] was 2.7.

Work on C[C@H](C(=O)O)c1ccc(-c2ccccc2)c(F)c1 yielded a logD [3] of 3.87.

For CCCCOC(=O)[C@H](CS)NCCN[C@@H](CS)C(=O)OCCCC, the logD [4] was 2.9.

Compound CCN(CC)CC(=O)Nc1c(C)cc(C)cc1C has a logD [5] of 2.73.

Compound CCCOC(=O)[C@H](CS)NCCN[C@@H](CS)C(=O)OCCC has a logD [4] of 2.5.

Work on CO[C@@]1(NC(=O)C(C(=O)O)c2ccc(O)cc2)C(=O)N2C(C(=O)O)=C(CSc3nnnn3C)CO[C@@H]21 (stereo not given in full) yielded a logD ([6]; pH 2.0) of -0.58.

Work on CN(C)CCN(Cc1ccccc1)c1ccccn1 yielded a logP of 2.65.

With CN(C)c1ccccc1Sc1ccc(Cl)cc1N the logD [7] was 3.55.

With CCCCCCN1CCN(Cc2ccc(Cl)nc2)C1=N[N+](=O)[O-] the logP [8] was 2.2.

CCCCOC(=O)n1cnc(CSCCNC(=NC#N)NC)c1C showed a logD [9] of 2.15.

With CCCCCCOC(=O)n1cnc(C)c1CSCCNC(=NC#N)NC the logD [9] was 3.1.

COC(=O)[C@H]1O[C@@H](Oc2ccc3ccc(=O)oc3c2)[C@H](O)[C@@H](O)[C@@H]1O showed a logD [10] of -1.08.

For O=C(CCN1CCCC1)CN1C(=O)C2CC=CCC2C1=O (stereo not given), the logP [11] was 1.11.

For CNC12CCCCC1CC(C)c1ccccc12 (stereo not given), the logP [12] was 3.96.

In the case of COc1c(C)c(O)cc2c1C(=O)c1ccccc1C2=O, the logD [13] is reported as 2.83.

Work on O=C(NCC(F)(F)F)NS(=O)(=O)c1cnccc1NC1CCCCCC1 yielded a logP [14] of 0.95.

O=[N+]([O-])N=C1N(Cc2ccccc2)CCN1Cc1ccc(Cl)nc1 gave a logP [8] of 1.49.

Compound CSc1cccc(N(C)C(=N)Nc2cc(SC)ccc2Cl)c1 has a logP [15] of 2.68.

With COc1ccc(Sc2ccccc2N(C)C)c(N)c1 the logD [7] was 2.83.

With CSC(=NOC(=O)N(C)COC1OC(C(=O)O)C(O)C(O)C1O)C(=O)N(C)C (stereo not given) the logD [10] was -1.98.

Compound CC(CC(=O)O)c1ccc(OCc2ccccc2)cc1 (stereo not given) has a logD [16] of 3.58.

In the case of NC(=O)C(CCN1CCCCC1)c1ccccc1Cl (stereo not given), the logP [17] is reported as 2.46.

O=C(CCl)Nc1cc2c(Nc3cc(Cl)c(Cl)cc3F)ncnc2cc1OCCOCCOCCOCCOCCOCCF gave a logD [18] of 4.75.

For CCCCCCCCOC(=O)OC[C@@H]1O[C@H](n2ccc(N)nc2=O)CS1, the logP [19] was 1.72.

For CCc1cccc(N(C)C(=N)Nc2cc(SC)ccc2Cl)c1, the logP [15] was 3.

COc1ccc2[nH]c3c4ccc(Cl)cc4ncc3c2c1 gave a logP [20] of 4.49.

For Cc1cc2oc(=O)cc(C)c2cc1OCC(O)CO (stereo not given), the logP [21] was 0.36.

Compound CC(C)(C)NC[C@H](O)COc1ccccc1C1CCCC1 has a logD [22] of 3.61.

Compound FCCNc1ccc(-c2cn3cc(I)ccc3n2)cc1 has a logD [23] of 4.41.

C=CCC1(C(=O)OC)C(C=C(C)C)C1(C)C (stereo not given) gave a logP [24] of 4.89.

Work on COC(=O)c1c(C)[nH]c(-c2cccc(Cl)n2)c1C(=O)OC yielded a logP [25] of 2.65.

Compound O=c1c(-c2ccc(O)cc2)coc2cc(O[C@@H]3O[C@H](CO)[C@@H](O)[C@H](O)[C@H]3O)ccc12 has a logD [26] of 0.32.

FCCCNc1ccc(-c2cn3cc(I)ccc3n2)cc1 showed a logD [23] of 4.6.

Compound CN1C(C(=O)Nc2ccccn2)=C(O)c2ccccc2S1(=O)=O has a logP [2] of 1.86.

O=C(CCN1CCOCC1)CN1C(=O)C2CC=CCC2C1=O (stereo not given) gave a logP [11] of 0.56.

CC(C)N(CCC(CCN1CCCCC1)(C(N)=O)c1ccccc1Cl)C(C)C (stereo not given) showed a logP [17] of 4.78.

CCCN(CC)C(CC)C(=O)Nc1c(C)cccc1C (stereo not given) gave a logD [5] of 3.22.

For O=C(CCl)Nc1ccc2ncnc(Nc3cc(Cl)c(Cl)cc3F)c2c1, the logD [18] was 4.12.

CNC12CC(CN)CCC1CCc1ccccc12 (stereo not given) showed a logP [12] of 2.

CNS(=O)(=O)Cc1ccc2[nH]cc(CCN(C)C)c2c1 gave a logP of 1.1.

CC=CCOC(=O)[C@@H]1[C@@H](C=C(C)C)C1(C)C gave a logP [24] of 5.09.

Compound CC(=O)OCC1=C(C(=O)O)N2C(=O)C(NC(=O)Cc3cc4ccccc4s3)C2SC1 (stereo not given) has a logD ([27]; pH 3.0) of 1.68.

In the case of COc1ccc2[nH]c3c(c2c1)CCNc1cc(Cl)ccc1-3, the logP [20] is reported as 4.24.

Work on CC(C)(C)NCC(O)COc1cccc2c1CCC(=O)N2 (stereo not given) yielded a logD [22] of 1.49.

CN(C)C(=O)O[C@H]1N=C(c2ccccc2)c2cc(Cl)ccc2N(C)C1=O gave a logD [1] of 2.88.

Compound CC1(C)Oc2ccc(C#N)cc2C(N2CCCC2=O)C1O (stereo not given) has a logP [28] of 2.1.

With Cc1ccc(SCC(=O)c2ccc(Cl)cc2)cc1 the logP [29] was 3.43.

For CCc1c(O)c(=O)ccn1CCOC(=O)c1ccccc1, the logD [30] was 1.52.

O=C(NC1CCCCCC1)NS(=O)(=O)c1cnccc1Nc1cccc(C(F)(F)F)c1 gave a logP [14] of 2.02.

With COC(=O)c1c(C)[nH]c(-c2ccc(Cl)cn2)c1C(=O)OC the logP [25] was 2.7.

With CC(C(=O)O)(c1ccccc1)c1ccccc1 the logP [31] was 2.69.

In the case of Cc1nnc(SCC2=C(C(=O)O)N3C(=O)[C@@H](NC(=O)Cn4cnnn4)[C@H]3SC2)s1, the logP [27] is reported as -0.24.

Work on O=C(O)Cc1sc(-c2ccccc2)nc1-c1ccc(Cl)cc1 yielded a logD [3] of 2.72.

Compound CC(=O)CC(c1ccccc1)c1c(O)c2ccccc2oc1=O (stereo not given) has a logP [28] of 2.4.

Work on Cc1cc(=O)oc2c(C)c(OCC(O)CCl)ccc12 (stereo not given) yielded a logP [21] of 0.53.

Compound Oc1ccc(/C=C/c2cc(O)cc(O)c2)cc1 has a logP [32] of 2.56.

With Cc1ccc(C(=O)CSc2ccccc2)cc1 the logP [29] was 2.7.

O=C(O)CCc1ccc(OCc2ccccc2)cc1 showed a logD [16] of 3.31.

With O=C(O)C1c2ccccc2Cc2ccccc21 the logP [31] was 2.78.

For Cc1c(O)cc2c(c1O)C(=O)c1ccccc1C2=O, the logD [13] was 2.36.

Cc1c(O)c(=O)ccn1CCOC(=O)c1ccccc1 showed a logD [30] of 1.04.

In the case of Cc1cc(-c2ccc(N)c(C)c2)ccc1N, the logD ([6]; pH 5.8) is reported as 2.34.

Work on CCCCCCOC(=O)OC[C@@H]1O[C@H](n2ccc(N)nc2=O)CS1 yielded a logP [19] of 1.57.

In the case of Oc1ccc([C@H]2COc3cc(O)ccc3C2)cc1, the logD [26] is reported as 3.2.
